Key:
[1] = system: carrageenan induced paw edema; experiment: carrageenan-induced rat paw edema; assay type: in vivo
Description: Anti-inflammatory activity screening
The anti-inflammatory activity of the tested compounds was determined in-vivo by the acute carrageenan induced paw edema standard method in rats. Adult Wister rats of either sex (pregnant female animals were excluded) weighing 120–150 g were divided into 19 groups of 6 animals each. The tested compounds dissolved in DMSO, at a dose of 10 mg kg-1 (rat body […]
inflammation. The control group was given DMSO only. Paw edema was induced by subcutaneous injection of freshly prepared 1% solution of carrageenan in saline (0.9%, 0.1 ml per rat) into subplantar tissue of the right hind paw of rats. The thickness of the paw was measured (in mm) after successive time intervals (1, 2, 3, 4 and 24 h) and compared with the initial hind paw thickness of each rat for determining the edema thickness. Data were collected, checked, revised and analyzed (SPSS 16). Quantitative variables from normal distribution were expressed as means ± SE “standard error”. The anti-inflammatory activity was expressed as percentage inhibition of edema thickness in treated animals in comparison with the control group according to eqn. (1) […]
% Inhibition of edema= Vc-Vt x 100 … .. (1)
Where, Vc and Vt are the means of edema paw thickness for the control and tested compound treated animal groups, respectively.
The potency of the tested compounds was expressed as % inhibition of edema thickness […]
% Potency = % inhibition of edema for the tested compound treated group x 100 … . (2)

[2] = system: acetic acid-induced abdominal writhing; experiment: acetic acid-induced abdominal writhing assay (peripheral analgesic); assay type: in vivo, mice; conditions: for % Inhibition/Protection / Writing Reflex ± SE: 10 mg/kg indomethacin mol equivalent i.p.; for Potency: % inhibition/protection compared to indomethacin; for Writing Reflex ± SE: number of writhing counted for 30 min
Description: Peripheral analgesic testing
Peripheral analgesic activity was measured by the standard acetic acid-induced writhing […]
One hour after intraperitoneally (i,p.) administration of 10 mg kg−1 (mice body weight) […]
distilled/sterile water by the aid of two drops of Tween 80, each mouse was injected with 0.1 ml of 1% acetic acid solution i.p. The control group animals were given sterile/distilled water only with few drops of Tween 80. Starting 5 min after the acetic acid injection, the number of muscular contractions in each mouse was counted for 30 min. A significant reduction in the number of writhing by any test compound as compared to control animals was considered as a positive analgesic response. Percentage protection was calculated according to equ. (3), where n stands for the average number of writhing in the control group and n' is the average number of writhing in the treated group. The % potency was calculated by equ. (4) (Table 2).
% Inhibition/protection = n−n′ x100 … . (3)

hot plate latency = experiment: hot plate assay (central analgesic); assay type: in vivo, mice; conditions: for % Protection / Latency Period ± SE: 10 mg/kg indomethacin mol equivalent i.p.; for Latency Period ± SE: cutoff 15 sec; for Potency: at 120 min compared to indomethacin
Description: The % potency was calculated by equ. (4) (Table 2). […]
% Potency = % protection of the tested compound x 100 ……. (4) […]
Central analgesic (hot plate) testing
The standard hot plate technique was undertaken by in vivo standard hot plate test [ 1,2]. […]
by placing them on a hot plate maintained at 55 ± 1 °C, 30 min. […]
suspended in sterile/distilled water by the ai d of two drops of Tween 80, and recording the reaction time in seconds for forepaw licking or jumping. The control group animals were given sterile/distilled water only with few drops of Tween 80. The maximum cutoff time was chosen as 15 sec. to prevent tissue damage. Response latencies were measured 30, 60, 90 and 120 min. after the application. The % protection was calculated by equ. ( 5) where, T1, T0 are the latency time mean of the tested compound and control group, respectively (Table 3).

gastric mucosa = conditions: both, albino, mouse, in vivo, po, 10 mg/kg, 3 days
Description: The ulcerogenic liability was determined in albino mice obeying the standard method.
Animals of either sex (pregnant females were excluded) weighing 20 –25 g were divided into 8 groups of 6 animals each. The animals fasted 18 h before drug administration.
80 administered orally for three successive days to fasted animals at a dose of 10 mg kg-1 (animal […]
The control group animals were given water only with few drops of Tween 80. The animals were sacrificed by cervical dislocation and the stomach was removed, opened along the greater curvature and rinsed with saline. The gastric mucosa was examined with a magnifying lens (10x) for the presence of lesions and ero sions. The ulcer index was calculated (Table 4) and the degree of ulcerogenic effect was expressed in terms of.
1. The percentage incidence of ulcers divided by 10.
2. Average number of ulcers per stomach.
3. Average severity of ulcers.
The ulcer index is the value that resulted from the sum of the above three values. […]

[3] = 1 h, 10 mg/kg indomethacin mol equivalent i.p.
[4] = 3 h, 10 mg/kg indomethacin mol equivalent i.p.
[5] = 4 h, 10 mg/kg indomethacin mol equivalent i.p.
[6] = 24 h, 10 mg/kg indomethacin mol equivalent i.p.
[7] = 2 h, 10 mg/kg indomethacin mol equivalent i.p.

Compound | % Inhibition of Edema ± Standard Error [1, 3] [%] | % Inhibition of Edema ± Standard Error [1, 4] [%] | % Inhibition of Edema ± Standard Error [1, 5] [%] | % Inhibition of Edema ± Standard Error [1, 6] [%] | % Inhibition/Protection [2] [%] | Potency [2] [%] | Writing Reflex ± SE [2] | % Protection (hot plate latency; after 30 min) [%] | Latency Period ± SE (hot plate latency; after 30 min) [s] | % Protection (hot plate latency; after 60 min) [%] | Latency Period ± SE (hot plate latency; after 60 min) [s] | % Protection (hot plate latency; after 90 min) [%] | Latency Period ± SE (hot plate latency; after 90 min) [s] | % Protection (hot plate latency; after 120 min) [%] | Latency Period ± SE (hot plate latency; after 120 min) [s] | Potency (hot plate latency) | % Inhibition of Edema ± Standard Error [1, 7] [%] | further results
COc1ccc2c(c1)c(CC(=O)OCc1cn(-c3ccc(C)cc3)nn1)c(C)n2C(=O)c1ccc(Cl)cc1 [Compound 8d, (1-(p-Tolyl)-1H-1,2,3-triazol-4-yl)methyl 2-(1-(4-chlorobenzoyl)-5-methoxy-2-methyl-1H-indol-3-yl)acetate] | 0.00 ± 0.8 | 0.00 ± 0.5 | 0.00 ± 0.6 | 0.00 ± 0.4 | 62.5 | 87.0 | 15.0 ± 1.6 | 97.8 | 13.21 ± 2.5 | 74.0 | 12.65 ± 2.0 | 50.1 | 13.37 ± 1.6 | 48.6 | 13.39 ± 1.2 | 86.0 | – | –
COc1ccc2c(c1)c(CC(=O)OCc1cn(-c3ccccc3OC)nn1)c(C)n2C(=O)c1ccc(Cl)cc1 [Compound 8e, (1-(2-Methoxyphenyl)-1H-1,2,3-triazol-4-yl)methyl 2-(1-(4-chlorobenzoyl)-5-methoxy-2-methyl-1H-indol-3-yl)acetate] | 0.00 ± 0.2 | – | 4.2 ± 1.9 | 0.00 ± 0.3 | 80.8 | 112.5 | 7.7 ± 1.3 | 69.2 | 11.30 ± 1.1 | 82.0 | 13.23 ± 1.6 | 27.5 | 11.36 ± 2.5 | 28.9 | 11.61 ± 2.2 | 51.2 | 6.5 ± 1.0 | –
COc1ccc(-n2cc(COC(=O)Cc3c(C)n(C(=O)c4ccc(Cl)cc4)c4ccc(OC)cc34)nn2)cc1 [Compound 8f, (1-(4-Methoxyphenyl)-1H-1,2,3-triazol-4-yl)methyl 2-(1-(4-chlorobenzoyl)-5-methoxy-2-methyl-1H-indol-3-yl)acetate] | – | – | – | – | 66.8 | 93.0 | 13.3 ± 1.9 | 66.3 | 11.11 ± 1.6 | 92.4 | 13.99 ± 1.9 | 68.4 | 15.00 ± 2.5 | 66.5 | 15.00 ± 2.6 | 117.7 | – | anti-inflammatory efficacy (in words) ([1]; carrageenan-induced rat paw edema): no anti-inflammatory efficacy
COc1ccc2c(c1)c(CC(=O)OCc1cn(-c3ccc([N+](=O)[O-])cc3)nn1)c(C)n2C(=O)c1ccc(Cl)cc1 [Compound 8g, (1-(4-Nitrophenyl)-1H-1,2,3-triazol-4-yl)methyl 2-(1-(4-chlorobenzoyl)-5-methoxy-2-methyl-1H-indol-3-yl)acetate] | 20.0 ± 0.7 | – | – | 0.00 ± 1.2 | 96.3 | 134.1 | 1.5 ± 0.4 | 56.6 | 10.46 ± 2.4 | 45.4 | 10.57 ± 2.7 | 41.2 | 12.58 ± 2.0 | 2.7 | 9.25 ± 2.3 | 4.8 | – | –
CC(C)Cc1ccc(C(C)C(=O)O)cc1 (centres unmarked) [Ibu, Ibuprofen, reference compound] | 44.4 ± 2.5 | 78.8 ± 0.9 | 21.0 ± 1.1 | – | 58.5 | 81.5 | 16.6 ± 0.7 | 61.7 | 10.80 ± 0.8 | 51.3 | 11.00 ± 1.3 | 33.6 | 11.90 ± 1.5 | 54.3 | 13.90 ± 2.2 | 96.1 | 43.5 ± 2.9 | % Inhibition of Edema ± Standard Error ([1]; 24 h, 10 mg/kg indomethacin mol equivalent i.p., 10 mg/kg): 11.2 ± 0.6%; % Inhibition of Edema ± Standard Error ([1]; 24 h, 10 mg/kg indomethacin mol equivalent i.p., listed as ibuprofen, 10 mg/kg): 11.2%; Mean Edema Thickness ([1]; 24 h, 10 mg/kg indomethacin mol equivalent i.p., ± standard error): 0.817 ± 0.07 mm; % Potency ([1]; % inhibition of edema thickness relative to indomethacin at 3 h): 97.2%; % Incidence of Ulcer Divided by 10 (gastric mucosa): 3.33; Average Severity of Ulcer (gastric mucosa): 0.67; Average of Ulcer Number (gastric mucosa): 0.33; Number of Animals with Ulcer (gastric mucosa): 2/6

From paper PMC9965125, “New NSAID Conjugates as Potent and Selective COX-2 Inhibitors: Synthesis, Molecular Modeling and Biological Investigation” (Molecules, 2023)
